# Laboratory results: publication PMC7317212 (Chemmedchem, 2020)
# Legend:
# mGAT1 [1] = molecular target: T1, mGAT1 (Mus musculus, UniProt P31648); assay: [^3H]GABA uptake assay, HEK293 cells expressing mGAT1; format: cell-based; details: for remaining activity at 100 µM: HEK293, in presence of 100 μM compound
# T1 construct: expressed in transfected cells; host or cells: HEK293
# Method: (§1) For compounds with pIC50 ([^3H]GABA uptake assay) or pK i (MS Binding Assays) values close to or above 5.0, these experiments were repeated twice and SEM have been calculated.
# (§2) [^3H]GABA uptake assays: The [^3H]GABA uptake assays were performed according to Kragler et al.33 Cells were grown in 150 cm^2 plates to a confluence of 70–90 % up to passage 25. After detachment the cells were centrifuged 5 min at 500×g, washed for three times in phosphate buffered saline and, finally, resuspended in Krebs buffer (2.5 mM CaCl2, 1.2 mM MgSO4, 1.2 mM KH2PO4, 4.7 mM KCl, 11 mM glucose, 25 mM Tris, 119 mM NaCl, pH 7.2). The uptake assays were performed with aliquots of the resulting cell suspension (about 100000–200000 cells per well) in a total volume of 250 μl in 96 well 2.2 mL deep well plates. The cells were equilibrated for 25 min in Krebs buffer in the presence of the test compound at 37 °C in a gently shaking water bath. […] After addition of 25 μl of a solution containing [^3H]GABA (2.22 TBq/mmol, ARC, St Louis, MO, USA) and unlabeled GABA in Krebs (final concentration 8 nM [^3H]GABA and 32 nM unlabeled GABA for mGAT1, mGAT3, mGAT4 and 20 nM [^3H]GABA and 20 nM unlabeled GABA for mGAT2) the cells were incubated for further 4 min (mGAT1, mGAT3, mGAT4) or 10 minutes (mGAT2), respectively. The incubation was stopped by filtration through Sartorius MGC micro glass fiber filters pre‐soaked for 1 h in 0.9 % NaCl by means of a Brandell MWXR‐96TI cell harvester (Brandell, Gaithersburg, MD, USA) under reduced pressure. The filters were rinsed two times with cold 0.9 % NaCl and subsequently transferred to 96 well sample plates (Perkin Elmer LAS, Boston, MA, USA). After addition of 200 μl Rotiszint Eco Plus (Roth, Karlsruhe, Germany) per well the radioactivity was determined in a microbeta liquid scintillation counter (Perkin Elmer LAS, Boston, MA, USA). Non‐specific uptake was determined in presence of 10 mM GABA for mGAT1, mGAT3 and mGAT4 or 100 mM GABA for mGAT2, respectively. The results are expressed as means±S.E.M. of at least three separate experiments, each carried out in triplicate.
# mGAT4 = molecular target: T2, mGAT4 (Mus musculus, UniProt P31650); assay: [^3H]GABA uptake assay, HEK293 cells expressing mGAT4; format: cell-based; details: for remaining activity at 100 µM: HEK293, in presence of 100 μM compound; for IC50: [^3H]GABA uptake, pIC50±SEM
# T2 construct: expressed in transfected cells; host or cells: HEK293
# T2 sequence (P31650 1-627): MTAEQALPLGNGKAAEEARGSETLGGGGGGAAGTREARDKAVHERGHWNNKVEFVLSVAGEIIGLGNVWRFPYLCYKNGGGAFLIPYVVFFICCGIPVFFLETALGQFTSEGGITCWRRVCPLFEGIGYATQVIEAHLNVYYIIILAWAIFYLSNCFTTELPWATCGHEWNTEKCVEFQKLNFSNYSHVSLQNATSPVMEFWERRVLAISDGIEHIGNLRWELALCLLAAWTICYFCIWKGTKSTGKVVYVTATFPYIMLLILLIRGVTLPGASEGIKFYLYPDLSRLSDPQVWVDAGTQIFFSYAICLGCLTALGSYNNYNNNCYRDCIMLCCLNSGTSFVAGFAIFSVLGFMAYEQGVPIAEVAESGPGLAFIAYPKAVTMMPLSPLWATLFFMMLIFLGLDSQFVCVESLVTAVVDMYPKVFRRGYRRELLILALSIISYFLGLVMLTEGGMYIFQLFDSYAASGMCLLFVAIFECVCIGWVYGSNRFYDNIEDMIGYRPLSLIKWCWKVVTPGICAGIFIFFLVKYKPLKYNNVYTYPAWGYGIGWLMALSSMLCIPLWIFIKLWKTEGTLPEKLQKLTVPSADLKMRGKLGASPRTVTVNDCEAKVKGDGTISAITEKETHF
# Method: as §1, §2
# mGAT3 = molecular target: T3, mGAT3 (Mus musculus, UniProt P31649); assay: [^3H]GABA uptake assay, HEK293 cells expressing mGAT3; format: cell-based; details: for remaining activity at 100 µM: HEK293, in presence of 100 μM compound; for IC50: [^3H]GABA uptake, pIC50±SEM
# T3 construct: expressed in transfected cells; host or cells: HEK293
# T3 sequence (P31649 1-602): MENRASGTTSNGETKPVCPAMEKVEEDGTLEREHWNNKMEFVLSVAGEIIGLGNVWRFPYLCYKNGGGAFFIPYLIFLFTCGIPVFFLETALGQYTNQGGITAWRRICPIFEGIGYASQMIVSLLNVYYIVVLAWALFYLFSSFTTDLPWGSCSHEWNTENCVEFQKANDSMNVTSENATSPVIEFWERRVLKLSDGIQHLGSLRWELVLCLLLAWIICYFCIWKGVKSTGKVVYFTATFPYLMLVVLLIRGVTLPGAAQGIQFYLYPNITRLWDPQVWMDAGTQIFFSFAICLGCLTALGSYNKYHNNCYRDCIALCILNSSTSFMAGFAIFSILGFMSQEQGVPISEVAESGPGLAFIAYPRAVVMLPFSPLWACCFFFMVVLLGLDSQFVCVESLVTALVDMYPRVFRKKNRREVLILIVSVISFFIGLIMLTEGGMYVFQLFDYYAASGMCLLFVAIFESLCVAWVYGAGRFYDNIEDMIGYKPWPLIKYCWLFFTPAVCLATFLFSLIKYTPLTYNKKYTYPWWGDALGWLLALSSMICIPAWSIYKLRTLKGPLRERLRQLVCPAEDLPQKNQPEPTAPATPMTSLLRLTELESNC
# Method: as §1, §2
# mGAT2 = molecular target: T4, mGAT2 (Mus musculus, UniProt P31651); assay: [^3H]GABA uptake assay, HEK293 cells expressing mGAT2; format: cell-based; details: for remaining activity at 100 µM: HEK293, in presence of 100 μM compound
# T4 construct: expressed in transfected cells; host or cells: HEK293
# T4 sequence (P31651 1-614): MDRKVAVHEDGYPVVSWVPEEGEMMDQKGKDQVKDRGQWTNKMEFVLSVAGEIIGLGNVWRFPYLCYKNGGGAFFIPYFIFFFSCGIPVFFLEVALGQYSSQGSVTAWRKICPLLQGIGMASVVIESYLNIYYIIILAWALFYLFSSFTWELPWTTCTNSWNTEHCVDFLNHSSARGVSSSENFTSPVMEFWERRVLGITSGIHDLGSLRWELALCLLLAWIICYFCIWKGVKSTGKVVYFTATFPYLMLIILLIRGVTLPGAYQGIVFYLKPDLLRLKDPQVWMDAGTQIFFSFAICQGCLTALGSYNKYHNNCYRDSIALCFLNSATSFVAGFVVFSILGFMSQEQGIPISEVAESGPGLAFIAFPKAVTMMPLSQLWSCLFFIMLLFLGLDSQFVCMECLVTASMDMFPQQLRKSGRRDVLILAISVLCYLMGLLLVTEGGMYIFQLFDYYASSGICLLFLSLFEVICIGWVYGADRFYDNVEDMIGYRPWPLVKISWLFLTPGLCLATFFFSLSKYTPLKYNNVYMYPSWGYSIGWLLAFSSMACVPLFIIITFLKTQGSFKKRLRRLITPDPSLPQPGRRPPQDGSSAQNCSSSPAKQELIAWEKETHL
# Method: as §1, §2
# mGAT1 [2] = molecular target: T1, mGAT1; assay: MS Binding Assay with NO711 as native MS marker; details: in presence of 100 μM compound; read-out: remaining specific NO711 binding (mGAT1)
# Method: as §1
# MS Binding Assays: The MS Binding Assays were performed with mGAT1 membrane preparations obtained from a stably mGAT1 expressing HEK293 cell line and NO711 as unlabeled marker in competitive binding experiments as previously described in detail.34 In short, test compounds were investigated at 7 concentrations in presence of 10 nM NO 711 in competition experiments. Non specific binding was defined as binding remaining in the presence of 100 mM GABA. Incubation was terminated by transfer of 200 μL per well onto a 96‐well filter plate (Acroprep, glass fibre, 1.0 μm, 350 μL, Pall, Dreieich, Germany) with a 12 channel pipette. After rapid vacuum‐filtration the filters were washed with ice cold 0.9 % NaCl (5×150 μL) and dried at 50 °C for 60 min. Afterwards, the filters were eluted with 100 μL methanol containing [^2H10]NO711 (1.4 nM) as internal standard per well into a deep‐well plate by application of vacuum. This step was repeated twice resulting in a total elution volume of 300 μL. Finally, a volume of 130 μL ammonium formate buffer (10 mM, pH 7.0) was added per well and the generated samples analyzed by LC‐ESI‐MS/MS using a API 3200 as described in detail previously.40
Structure (SMILES),remaining activity at 100 µM (mGAT1 [1]),remaining activity at 100 µM (mGAT4),remaining activity at 100 µM (mGAT3),remaining activity at 100 µM (mGAT2),remaining activity at 100 µM (mGAT1 [2]),"IC50 (mGAT1 [1]; [^3H]GABA uptake, pIC50±SEM)",IC50 (mGAT4),IC50 (mGAT3),"IC50 (mGAT2; [^3H]GABA uptake, pIC50±SEM)"
"COc1ccc(C(OCCN2CCC[C@H](C(=O)O)C2)(c2ccc(C=O)cc2)c2ccc(OC)cc2)cc1 [(S)‐5 a, (S)‐1‐{2‐[(4‐Formylphenyl)bis(4‐methoxyphenyl)methoxy]ethyl}piper‐idine‐3‐carboxylic acid]",–,–,–,72.6%,77.4%,72.4 µM,1.29 µM,6.92 µM,–
"CCOC(=O)C1CCCN(CCOC(c2ccc(COC)cc2)(c2ccc(OC)cc2)c2ccc(OC)cc2)C1 (racemic) [12 f, rac‐ Ethyl 1‐(2‐{[4‐(methoxymethyl)phenyl]bis[4‐methoxyphenyl]‐methoxy}ethyl)piperidine‐3‐carboxylate]",66.6%,50.8%,56.9%,58.8%,55.3%,–,–,–,–
"COc1ccc(C(OCCN2CCCC(C(=O)O)C2)(c2ccc(OC)cc2)c2ccc(S(=O)(=O)N(C)C)cc2)cc1 (racemic) [5 c, rac ‐1‐(2‐{[4‐(N,N‐dimethylsulfamoyl)phenyl]bis[4‐methoxyphenyl]‐methoxy}ethyl)piperidine‐3‐carboxylic acid]",67.9%,82%,77.1%,78%,62.1%,–,> 100 µM,–,–
"CCOC(=O)C1CCCN(CCOC(c2ccc(COC)cc2)(c2ccc(COC)cc2)c2ccc(COC)cc2)C1 (racemic) [12 i, rac‐ Ethyl 1‐(2‐{tris[4‐(methoxymethyl)phenyl]methoxy}ethyl)piperidine‐3‐carboxylate]",70.3%,51.4%,–,65%,87.5%,–,–,95.5 µM,–
"CCOC(=O)C1CCCN(CCOC(c2ccc(C=O)cc2)(c2ccc(OC)cc2)c2ccc(OC)cc2)C1 (racemic) [12 a, rac‐ Ethyl 1‐{2‐[(4‐formylphenyl)bis(4‐methoxyphenyl)methoxy]ethyl}‐piperidine‐3‐carboxylate]",55.5%,55.9%,–,–,85.4%,–,–,12.6 µM,26.9 µM
"CCOC(=O)C1CCCN(CCOC(c2ccc(CNC(C)(C)C(=O)OCC)cc2)(c2ccc(OC)cc2)c2ccc(OC)cc2)C1 (racemic) [12 q, rac‐ Ethyl 1‐{2‐[(4‐{[(1‐ethoxy‐2‐methyl‐1‐oxopropan‐2‐yl)amino]methyl}‐phenyl)bis(4‐methoxyphenyl)methoxy]ethyl}piperidine‐3‐carboxylate]",66.9%,57.4%,49.3%,67.4%,90.9%,–,–,–,–

# Now from value to compound:
remaining activity at 100 µM (mGAT1 [1]),remaining activity at 100 µM (mGAT4),remaining activity at 100 µM (mGAT3),remaining activity at 100 µM (mGAT2),remaining activity at 100 µM (mGAT1 [2]),"IC50 (mGAT1 [1]; [^3H]GABA uptake, pIC50±SEM)",IC50 (mGAT4),IC50 (mGAT3),"IC50 (mGAT2; [^3H]GABA uptake, pIC50±SEM)",Structure (SMILES)
100%,96.5%,94%,101%,96.9%,–,–,–,–,"COc1ccc(C(OCCN2CCCC(C(=O)O)C2)(C(=O)O)c2ccc(OC)cc2)cc1 (racemic) [5 k, rac ‐1‐{2‐[Carboxybis(4‐methoxyphenyl)methoxy]ethyl}piperidine‐3‐carboxylic acid]"
52.4%,67.6%,59.3%,76.7%,84.9%,–,–,–,–,"CCOC(=O)C1CCCN(CCOC(c2ccc(CNCCCC(=O)O)cc2)(c2ccc(OC)cc2)c2ccc(OC)cc2)C1 (racemic) [12 s, rac ‐4‐{[4‐({2‐[3‐(Ethoxycarbonyl)piperidin‐1‐yl]ethoxy}bis{4‐methoxy‐phenyl}methyl)benzyl]amino}butanoic acid]"
75.5%,66.1%,58.8%,103%,95.8%,–,–,–,–,"CCOC(=O)C1CCCN(CCOC(c2ccc(CNC3(C(=O)OCC)CC3)cc2)(c2ccc(OC)cc2)c2ccc(OC)cc2)C1 (racemic) [12 p, rac‐ Ethyl 1‐(2‐{[4‐({[1‐(ethoxycarbonyl)cyclopropyl]amino}methyl)‐phenyl]bis[4‐methoxyphenyl]methoxy}ethyl)piperidine‐3‐carboxylate]"
76.6%,71.9%,63.6%,80.7%,97.6%,–,–,–,–,"CCOC(=O)C1CCCN(CCOC(c2ccc(C#N)cc2)(c2ccc(OC)cc2)c2ccc(OC)cc2)C1 (racemic) [12 g, rac‐ Ethyl 1‐{2‐[(4‐cyanophenyl)bis(4‐methoxyphenyl)methoxy]ethyl}‐piperidine‐3‐carboxylate]"
